In patent US8354388B2, “Inhibitors of MRP4 for the treatment of vascular disorders” (INSERM (Institut National de la Sante et de la Recherche …, priority 2007, dated 2013):
Entries after “also recorded” stand apart in the source; their conditions may differ. Read-outs that look alike come from different tables or passages of the source. Values belong to the compound of their own block, whether it stands above or below them.

Legend:
[1] = system: human coronary artery smooth muscle cells (hCASMC); assay: BrdU incorporation proliferation assay in hCASMC; conditions: for hCASMC proliferation, relative increase compared to 0.1% S: without inhibitors 240±15.8%; for dose-effect on hCASMC proliferation: increasing doses; for inhibitory effect on hCASMC proliferation under inhibition of PKA by Ad-PKI: infection with Ad-PKI
Description: Cell proliferation was measured 72 hours after plating by BrdU incorporation and expressed as relative increase compared to growth supplement starved (0.1% S) cells. […] (b) Dose-effect of MRP and PDE inhibitors (DIP: Dipyridamole, IBMX, MK571 and NBMPR) on hCASMC proliferation. n=3 experiments in triplicate. * p≦0.05, ** p≦0.01, *** p≦0.001
Human smooth muscle cells were cultured in 96-wells tissue culture plates for 3 days in Smooth Muscle Cell Basal Medium 2 supplemented with 5% S. Medium containing 0.1% S was used for the growth arrest control. Cells were incubated with pharmacological agents or siRNA for 72 h in medium containing 5% S. BrdU was added for the last 16 hours. The cell culture plates were washed, and a colorimetric BrdU cell proliferation assay was performed according to the manufacturer's instructions (Roche).

human MRP4 = assay: MRP4 silencing in hCASMC (quantitative real-time PCR, western blot); assay type: cell-based; conditions: siRNA 50 nM, 72 hours after transfection
Description: Total RNA was prepared using RNeasy Mini Kit […] and 1 μg was reverse-transcribed using a standard protocol. One tenth of the resulting cDNA was amplified by 35 cycles of 30 s at 94° C., 30 s at Tm (60° C. for MRP4, MRP5 and RPL32) and 30 s at 72° C., followed by a final amplification at 72° C. for 10 min using 1 unit of BIOTAQ DNA Polymerase (Bioline) and 200 pmol each of the following primers: […]
Gene specific primers were used to amplify mRNA by qPCR on a Mx4000 apparatus (Stratagene) using the Qiagen SYBR Green master mix. The specificity of each primer set was monitored by analysis of the dissociation curve. A sample volume of 25 μl was used for each assay, which contained a 1× final concentration of SYBR green PCR master mix, 400 nM gene specific primers, and 5 μl template.
Total cell lysates were prepared according to standard protocol (Upstate Biotechnology). […] Optical Density was quantified using ImageJ software (National Institutes of Health, Bethesda, Md.). […]

hCASMC = assay: TUNEL staining for apoptosis in hCASMC; assay type: cell-based, human; conditions: siRNA transfected 72 h
Description: MRP4 or scramble siRNA were transfected in hCASMC for 72 h and the apoptosis was analyzed by TUNEL staining (ApopTag Red, Serologicals Corp). For the positive control, cells were treated with staurosporin (10 μM) for 1 h.

[2] = system: cAMP responsive element CRE; assay: CRE-luciferase reporter gene assay in hCASMC; assay type: cell-based, human; conditions: 5% S, percent of control
Description: Cells were co-transfected with the siRNA (50 nM) and the CRE-luciferase reporter gene plasmid (Stratagene) by electroporation using amaxa® Nucleofector technology according to manufacturer's instructions. After, a period of 6 h, the medium was replaced with supplement containing medium. Cells were grown in the presence of 5% S for 66 h. The results are means for three independent experiments performed in triplicate. The luciferase activity was measured by using “the luciferase assay kit” (Promega). It was expressed as percent of control in relative luciferase units.

[3] = system: human pulmonary artery smooth muscle cells (hPASMC); assay: BrdU incorporation proliferation assay in hPASMC; assay type: cell-based
Source text: FIG. 10. Inhibition of hPASMC (human pulmonary artery smooth musclulare cells) proliferation with MRP4 siRNA.

[4] = system: cyclic nucleotide efflux from hCASMCs; assay: cAMP and cGMP competitive enzyme immunoassay, intra-/extra-cellular ratio in hCASMC; assay type: cell-based, human; conditions: hCASMC transfected 72 h
Description: Cyclic GMP and AMP were measured in cell culture supernates and in cell lysates in hCASMC transfected for 72 h either with the scramble siRNA or the MRP4 siRNA by specific competitive enzyme immunoassay as described by the manufacturer (R&D systems).

[5] = system: phosphorylated CREB (pCREB); assay: Phosphorylated CREB western blot in proliferating hCASMC; assay type: cell-based, human; conditions: p=0.003
Description: Total cell lysates were prepared according to standard protocol (Upstate Biotechnology). Membrane proteins were isolated by scraping the cells in buffer A (5 mmol/L Tris/HCl, 250 mmol/L sucrose, and 0.1 mmol/L ethylenediaminetetraacetic acid supplemented with protease inhibitors cocktail (Sigma). The lysate was centrifuged at 10000 g for 10 min at 4° C. and the supernatant further centrifuged at 100000 g for 1 h at 4° C. The resulting pellet was resuspended in buffer A. Proteins (50 μg) were separated by SDS 12% PAGE, blotted on Hybond-C membrane (Amersham Biosciences) and incubated with various antibodies. The anti-MRP4 antibody was previously described^17. Other antibodies were: anti-MRP5 antibody (1:250; Santa-Cruz Biotechnology), anti-Caveolin1 (1:5000, Abcam), anti-cyclinD1 (1:500, BD Biosciences), anti-PP2B (calcineurin) (1:250; BD Biosciences), anti-CREB (1:1000; Upstate Biotechnology), anti-phosphorylated CREB (1:1000; Upstate Biotechnology). Immunoreactive proteins were visualized using an ECL® (enhanced chemiluminescence) detection system (Amersham Biosciences). Optical Density was quantified using ImageJ software (National Institutes of Health, Bethesda, Md.). […]

[6] = system: intracellular cAMP in hCASMC; assay: FRET imaging of cAMP with Epac2-camps in hCASMC; assay type: cell-based; conditions: Homo sapiens, read-out: EC50, dose providing 50% of maximal cAMP formation
Description: hCASMCs were transfected with scramble siRNA or the siRNA against MRP4 (each at 50 nM) in supplement-free medium over a period of 6 h, before the medium was replaced with supplement-containing medium. 24 h after the transfection, cells were infected with an adenovirus encoding the FRET-based cAMP sensor Epac2-camps. This FRET-based cAMP sensor contains a single cAMP binding domain of Epac2 fused to YFP and CFP fluorescent proteins. Upon addition of forskolin, increasing intra-cellular cAMP concentrations lead to a reversible conformational change of Epac2-camps which results in a decrease of FRET between CFP and YFP, leading to an increase in the CFP/YFP ratio^13. Imaging experiments were performed at 72 h and at room temperature. Cells were maintained in a K^+-Ringer solution containing (in mmol/L): NaCl 121.6, KCl 5.4, MgCl2 1.8; CaCl2 1.8; NaHCO3 4, NaH2PO4 0.8, D-glucose 5, sodium pyruvate 5, HEPES 10, adjusted to pH 7.4. Images were captured every 5 s using the 40× oil immersion objective of a Nikon TE 300 inverted microscope connected to a software-controlled (Metafluor, Molecular Devices, Sunnyvale, Calif., USA) cooled charge coupled (CCD) camera (Sensicam PE; PCO, Kelheim, Germany). […] Average fluorescence intensity was measured in a region of interest comprising the entire cell. […]
All quantitative data are presented as means ±SD. […]

MRP4 = target: T1, MRP4 (Homo sapiens, UniProt O15439); conditions: literature reference 41; cited from earlier work
T1 sequence (O15439 1-1325): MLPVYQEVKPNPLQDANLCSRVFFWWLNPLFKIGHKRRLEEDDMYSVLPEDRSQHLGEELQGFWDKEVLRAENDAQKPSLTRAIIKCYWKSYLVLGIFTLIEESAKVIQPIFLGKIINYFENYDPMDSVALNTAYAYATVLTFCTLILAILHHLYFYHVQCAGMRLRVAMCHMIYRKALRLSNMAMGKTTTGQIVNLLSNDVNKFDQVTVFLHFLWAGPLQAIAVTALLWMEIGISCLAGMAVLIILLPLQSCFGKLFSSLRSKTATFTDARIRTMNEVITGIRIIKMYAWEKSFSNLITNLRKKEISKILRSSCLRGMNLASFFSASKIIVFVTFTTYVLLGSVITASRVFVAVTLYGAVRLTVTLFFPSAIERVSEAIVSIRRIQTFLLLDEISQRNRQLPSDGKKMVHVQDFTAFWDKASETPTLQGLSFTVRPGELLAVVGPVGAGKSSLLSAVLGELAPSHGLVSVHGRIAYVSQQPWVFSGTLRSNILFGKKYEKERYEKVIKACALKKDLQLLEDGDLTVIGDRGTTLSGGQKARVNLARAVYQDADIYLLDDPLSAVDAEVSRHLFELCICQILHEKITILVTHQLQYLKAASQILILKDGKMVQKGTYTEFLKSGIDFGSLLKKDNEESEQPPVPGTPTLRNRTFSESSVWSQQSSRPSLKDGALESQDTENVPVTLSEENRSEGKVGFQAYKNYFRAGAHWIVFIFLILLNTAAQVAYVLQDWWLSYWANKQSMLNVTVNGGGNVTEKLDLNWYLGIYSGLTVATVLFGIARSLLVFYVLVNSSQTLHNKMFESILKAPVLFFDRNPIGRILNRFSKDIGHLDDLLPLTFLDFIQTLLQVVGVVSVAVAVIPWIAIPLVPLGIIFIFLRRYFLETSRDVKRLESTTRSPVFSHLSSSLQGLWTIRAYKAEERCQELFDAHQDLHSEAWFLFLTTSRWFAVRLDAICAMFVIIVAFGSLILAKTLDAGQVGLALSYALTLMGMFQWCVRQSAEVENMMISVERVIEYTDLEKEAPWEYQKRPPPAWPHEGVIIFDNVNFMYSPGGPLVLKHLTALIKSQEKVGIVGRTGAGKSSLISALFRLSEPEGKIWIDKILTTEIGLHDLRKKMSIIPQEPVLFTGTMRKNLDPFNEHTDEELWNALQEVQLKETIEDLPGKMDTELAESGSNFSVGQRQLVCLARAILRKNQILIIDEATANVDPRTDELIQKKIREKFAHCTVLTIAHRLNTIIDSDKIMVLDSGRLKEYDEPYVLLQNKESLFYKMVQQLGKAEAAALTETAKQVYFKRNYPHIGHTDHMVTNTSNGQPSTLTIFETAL

[7] = 5% S, 72 h, maximal dose used (MK571 37.5 μM, NBMPR 100 μM)

Compound: CC(C)Cn1c(=O)n(C)c(=O)c2[nH]cnc21 [IBMX]
hCASMC proliferation, relative increase compared to 0.1% S ([1]; 5% S, 72 h, IBMX 100 μM): 170±12%
dose-effect on hCASMC proliferation ([1]; 5% S, 72 h): dose-dependent inhibition

Compound: MRP4 siRNA: siRNA against human MRP4, sense 5′-CAGUGUUCUUACACUUCCUTT-3′ (SEQ ID NO:7), anti-sense 5′-AGGAAGUGUAAGAACACUGTT-3′ (SEQ ID NO:8) (chemistry not given here)
decrease in MRP4 mRNA compared to scramble siRNA (human MRP4): 75±1%
decrease in MRP4 protein level compared to scramble siRNA (human MRP4; western blot): 74±6.8%
apoptosis in hCASMC (hCASMC): not associated with apoptosis
CRE-luciferase activity compared to scramble siRNA [2]: 553±25%
hPASMC proliferation compared to scrambled siRNA [3]: significant decrease; also recorded: inhibits
cAMP intra-cellular/extra-cellular ratio compared to scramble siRNA [4]: 289±12.5%
cGMP intra-cellular/extra-cellular ratio compared to scramble siRNA [4]: 230±5.5%
inhibitory effect on hCASMC proliferation under inhibition of PKG by KT5823 ([1]; KT5823, MK571 37.5 μM, NMBPR 100 μM): not by the inhibition of cGMP-dependent protein kinase G
inhibitory effect on hCASMC proliferation under inhibition of PKA by Ad-PKI ([1]; MK571 37.5 μM, NMBPR 100 μM): completely reversed
supplement mix-induced hCASMC proliferation, relative increase compared to 0.1% S ([1]; siRNA 50 nM, 72 h, 5% S, scramble siRNA 313±35%): 183±27%
increase in level of pCREB compared to scramble siRNA [5]: 329±15%

Compound: OCCN(CCO)c1nc(N2CCCCC2)c2nc(N(CCO)CCO)nc(N3CCCCC3)c2n1 [dipyridamole]
reduction of hCASMC proliferation compared to MK571 or NBMPR ([1]; 5% S, 72 h): no significant difference
dose-effect on hCASMC proliferation ([1]; 5% S, 72 h): dose-dependent inhibition

EC50 ([6]; MRP4 siRNA transfected hCASMC): 3 ± 0.6 µM
EC50 ([6]; scramble siRNA transfected hCASMC): 13.3 ± 2.2 µM
Compound: C=C[C@@]1(C)CC(=O)[C@]2(O)[C@@]3(C)[C@@H](O)CCC(C)(C)[C@@H]3[C@H](O)[C@H](OC(C)=O)[C@@]2(C)O1 [forskolin]

Compound: CCCc1nn(C)c2c(=O)[nH]c(-c3cc(S(=O)(=O)N4CCN(C)CC4)ccc3OCC)nc12 [Sildenafil]
reported MRP4 inhibition (MRP4): MRP4 inhibitor

Compound: O=[N+]([O-])c1ccc(CSc2ncnc3c2ncn3[C@@H]2O[C@H](CO)[C@@H](O)[C@H]2O)cc1 [NBMPR]
dose-effect on hCASMC proliferation ([1]; 5% S, 72 h): dose-dependent inhibition
hCASMC proliferation, relative increase compared to 0.1% S [1, 7]: 140±15%
inhibitory effect on hCASMC proliferation under inhibition of PKA by Ad-PKI ([1]; MK571 37.5 μM, NMBPR 100 μM): also reversed

Compound: CN(C)C(=O)CCSC(SCCC(=O)O)c1cccc(/C=C/c2ccc3ccc(Cl)cc3n2)c1 (stereo not drawn) [MK571]
dose-effect on hCASMC proliferation ([1]; 5% S, 72 h): dose-dependent inhibition
hCASMC proliferation, relative increase compared to 0.1% S [1, 7]: 153±11%
inhibitory effect on hCASMC proliferation under inhibition of PKA by Ad-PKI ([1]; MK571 37.5 μM, NMBPR 100 μM): also reversed
